From DBAASP
Converted amounts (≈) assume the structure as drawn.

How the values were obtained:
Test in all cases: ≥ marks a high value that may be exact or a test limit, other limits are often not marked, values filed in µg/mL are converted to µM
[1] = tested on: Candida albicans ATCC 90028
[2] = tested on: Escherichia coli ATCC 25922
[3] = tested on: Pseudomonas aeruginosa ATCC 27853
[4] = tested on: Staphylococcus aureus ATCC 29213
[5] = tested on: Salmonella typhimurium KCTC 1926
Candida albicans = tested on: Candida albicans
[6] = tested on: Pseudomonas aeruginosa ATCC 9027
[7] = tested on: Klebsiella pneumoniae ATCC 700603
Acinetobacter baumannii = tested on: Acinetobacter baumannii
[8] = tested on: Staphylococcus aureus ATCC 25923
[9] = tested on: Enterococcus faecalis ATCC 29212
Staphylococcus aureus = tested on: Staphylococcus aureus
Escherichia coli = tested on: Escherichia coli

What does the source list for CC[C@H](C)[C@H](NC(=O)[C@H](CCCN=C(N)N)NC(=O)[C@H](C)NC(=O)[C@@H](NC(=O)[C@@H](NC(=O)[C@H](CCCN=C(N)N)NC(=O)[C@@H](N)CCCCN)[C@@H](C)CC)C(C)C)C(=O)N[C@@H](CCCCN)C(=O)N[C@@H](C)C(=O)N[C@@H](Cc1ccccc1)C(=O)N[C@@H](CC(C)C)C(=O)N[C@@H](CCCN=C(N)N)C(=O)O [KRIVARIKAFLR]?
MIC [1]: 2.5 µM (≈ 3.68 µg/mL); MIC [2]: 1.25 µM (≈ 1.84 µg/mL); MIC [3]: 1.25 µM (≈ 1.84 µg/mL); MIC [4]: 2.5 µM (≈ 3.68 µg/mL)

How did the MIC [1] turn out when CC[C@H](C)[C@H](NC(=O)[C@H](CCCCN)NC(=O)[C@H](CCC(N)=O)NC(=O)[C@@H](NC(=O)[C@@H](NC(=O)[C@H](CCCN=C(N)N)NC(=O)[C@@H](N)CCCCN)[C@@H](C)CC)C(C)C)C(=O)N[C@@H](CCCCN)C(=O)N[C@@H](CC(=O)O)C(=O)N[C@@H](Cc1ccccc1)C(=O)N[C@@H](CC(C)C)C(=O)N[C@@H](CCCN=C(N)N)C(=O)O [KRIVQKIKDFLR] was run?
The MIC was 20 µM (≈ 30.9 µg/mL).

What about the MIC [2] of the same compound?
The MIC was 5 µM (≈ 7.72 µg/mL).

And the MIC [3]?
Its MIC is 10 µM (≈ 15.4 µg/mL).

And the MIC [4]?
Its MIC is 10 µM (≈ 15.4 µg/mL).

Which results are given for CC[C@H](C)[C@H](NC(=O)[C@H](CCCN=C(N)N)NC(=O)[C@H](CCC(N)=O)NC(=O)[C@@H](NC(=O)[C@@H](NC(=O)[C@H](CCCN=C(N)N)NC(=O)[C@@H](N)CCCCN)[C@@H](C)CC)C(C)C)C(=O)N[C@@H](CCCCN)C(=O)N[C@@H](CC(=O)O)C(=O)N[C@@H](Cc1ccccc1)C(=O)N[C@@H](CC(C)C)C(=O)N[C@@H](C)C(=O)O [KRIVQRIKDFLA]?
MIC [1]: ≥ 40 µM; MIC [2]: 40 µM (≈ 59.5 µg/mL); MIC [3]: 40 µM (≈ 59.5 µg/mL); MIC [4]: 40 µM (≈ 59.5 µg/mL)

CC[C@H](C)[C@H](NC(=O)[C@@H](NC(=O)[C@@H](NC(=O)[C@H](CCCN=C(N)N)NC(=O)[C@@H](NC(=O)[C@@H](NC(=O)[C@H](CC(C)C)NC(=O)[C@@H]1CCCN1C(=O)[C@H](Cc1c[nH]c2ccccc12)NC(=O)[C@@H](NC(=O)[C@H](CCCN=C(N)N)NC(=O)[C@@H](N)CCCCN)C(C)C)C(C)C)[C@@H](C)CC)[C@@H](C)O)C(C)C)C(=O)N[C@@H](C)C(=O)NCC(=O)N[C@@H](Cc1ccc(O)cc1)C(=O)N[C@@H](CC(N)=O)C(=O)N[C@@H](CC(C)C)C(=O)N[C@@H](Cc1ccc(O)cc1)C(=O)N[C@@H](CCCN=C(N)N)C(=O)O [KRVWPLVIRTVIAGYNLYR] was tested. Which MIC [5] did it give?
Its MIC is at least 32 µM.

Which MIC (Candida albicans) does the source give for CC(=O)N[C@@H](CCCCN)C(=O)N[C@@H](Cc1ccc(O)cc1)C(=O)N[C@H](C(=O)NCC(=O)N[C@@H](CCCCN)C(=O)N[C@@H](CS)C(=O)N[C@@H](CCCCN)C(=O)N[C@H](C(=O)N[C@@H](CCCCN)C(=O)N[C@@H](CCCCN)C(=O)N[C@@H](CC(N)=O)C(=O)N[C@@H](CCCCN)C(=O)N[C@@H](CS)C(=O)N[C@@H](CCCCN)C(N)=O)[C@@H](C)O)[C@@H](C)O [KYTGKCKTKKNKCK] here?
The MIC was 1.3 µM (≈ 2.21 µg/mL).

What does the source list for CC[C@H](C)[C@H](NC(=O)[C@H](CC(C)C)NC(=O)[C@H](CCCCN)NC(=O)[C@H](CCCN=C(N)N)NC(=O)[C@H](CC(N)=O)NC(=O)[C@H](CC(C)C)NC(=O)[C@H](CCCCN)NC(=O)[C@H](Cc1c[nH]c2ccccc12)NC(=O)[C@@H](NC(=O)[C@@H](NC(=O)[C@H](CO)NC(=O)[C@H](Cc1ccccc1)NC(=O)[C@@H](N)CC(C)C)[C@@H](C)CC)[C@@H](C)CC)C(=O)N[C@@H](CCCCN)C(=O)N[C@@H](C)C(=O)O [LFSIIWKLNRKLIKA]?
MIC [2]: 64 µM (≈ 118 µg/mL); MIC [6]: > 64 µM; MIC [7]: > 64 µM; MIC (Acinetobacter baumannii): ≥ 64 µM; MIC [8]: > 64 µM

How did the MIC [2] turn out when CC(C)C[C@H](NC(=O)[C@H](CC(C)C)NC(=O)[C@H](CCCN=C(N)N)NC(=O)[C@H](CCCCN)NC(=O)[C@H](CCCN=C(N)N)NC(=O)[C@H](CC(C)C)NC(=O)[C@H](CCCCN)NC(=O)[C@H](CCCN=C(N)N)NC(=O)[C@H](CC(C)C)NC(=O)[C@H](Cc1cnc[nH]1)NC(=O)[C@H](CO)NC(=O)[C@H](C)NC(=O)[C@H](CC(C)C)NC(=O)[C@H](CCCN=C(N)N)NC(=O)[C@@H](NC(=O)[C@H](CC(C)C)NC(=O)[C@H](CCCN=C(N)N)NC(=O)[C@H](CCCCN)NC(=O)[C@H](CCCN=C(N)N)NC(=O)[C@H](CC(C)C)NC(=O)[C@H](CCCCN)NC(=O)[C@H](CCCN=C(N)N)NC(=O)[C@@H](N)CC(C)C)C(C)C)C(=O)O [LRKLRKRLVRLASHLRKLRKRLL] was run?
Its MIC is 2.05 µM (≈ 6 µg/mL).

What about the MIC (Acinetobacter baumannii) of the same compound?
The MIC was 2.05 µM (≈ 6 µg/mL).

And the MIC [9]?
Its MIC is over 10.9 µM.

And the MIC [3]?
Its MIC is 2.74 µM (≈ 8 µg/mL).

And the MIC [4]?
The MIC was 5.47 µM (≈ 16 µg/mL).

What does the source list for CC[C@H](C)[C@H](NC(=O)[C@H](CCCCN)NC(=O)[C@H](CS)NC(=O)[C@H](C)NC(=O)[C@@H](NC(=O)[C@H](Cc1ccccc1)NC(=O)[C@H](CCCCN)NC(=O)[C@H](CC(C)C)NC(=O)[C@H](CCCCN)NC(=O)[C@@H](NC(=O)[C@H](CCCCN)NC(=O)[C@H](CCCCN)NC(=O)[C@H](CC(C)C)NC(=O)[C@H](CC(N)=O)NC(=O)[C@H](CCCCN)NC(=O)[C@H](CC(C)C)NC(=O)[C@@H](NC(=O)[C@H](CO)NC(=O)[C@H](CC(C)C)NC(=O)[C@H](CCSC)NC(=O)[C@@H](N)CO)C(C)C)C(C)C)C(C)C)C(=O)N[C@@H](CC(N)=O)C(=O)N[C@@H](CCCCN)C(=O)N[C@@H](CCC(N)=O)C(=O)N[C@@H](CS)C(=O)O [SMLSVLKNLKKVKLKFVACKINKQC]?
MIC (Staphylococcus aureus): > 200 µM; MIC (Candida albicans): > 200 µM; MIC (Escherichia coli): 200 µM (≈ 573 µg/mL)
